24 molecules from patent publication US12319684B2 (Sanford Burnham Prebys Medical Discovery Institute, priority 2014, dated 2025) can be followed below.

The assay concerns the target T1, human apelin receptor (APJ, AGTRL-1, APLNR) (Homo sapiens, UniProt P35414).
T1 construct: host or cells: Chinese hamster ovary cells
T1 sequence (P35414 1-380): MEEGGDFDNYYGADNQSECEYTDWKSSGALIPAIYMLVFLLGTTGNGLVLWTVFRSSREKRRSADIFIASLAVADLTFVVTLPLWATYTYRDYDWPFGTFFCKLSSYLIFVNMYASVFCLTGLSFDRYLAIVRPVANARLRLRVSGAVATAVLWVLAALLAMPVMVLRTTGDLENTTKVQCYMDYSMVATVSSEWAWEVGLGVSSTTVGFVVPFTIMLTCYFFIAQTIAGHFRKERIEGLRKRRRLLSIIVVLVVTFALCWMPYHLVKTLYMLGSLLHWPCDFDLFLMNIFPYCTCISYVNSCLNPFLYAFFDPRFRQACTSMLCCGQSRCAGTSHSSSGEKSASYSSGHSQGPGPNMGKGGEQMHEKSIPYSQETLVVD
Nature of the assay: APJ cAMP cell-based assay (forskolin-stimulated CHO cells, enzyme fragment complementation). Particulars: for EC50: CHO cells expressing human APJ, forskolin-stimulated, 0.5 h incubation, 50% of control (apelin-13, 1 nM) response, read-out: APJ cAMP EC50; for Emax: CHO, 0.5 h, read-out: APJ cAMP % resp (efficacy). The protocol:
The assays disclosed herein were performed using cell lines from DiscoveRx, Inc.
Biological activity was determined in a cell-based assay. This assay detects activation of the receptor by reporting on intracellular cyclic adenosine monophosphate (cAMP) level. Chinese hamster ovary cells engineered to express a stably integrated human apelin receptor (APJ, AGTRL-1, APLNR), were plated into the wells of a microtiter plate. Cells were stimulated with forskolin to increase intracellular cAMP. Immediately following, compounds were added at a range of final concentrations 0.0-100 μM, in DMSO (not to exceed a final DMSO concentration of >1% v/v), and allowed to incubate with the cells for 0.5 h. At the end of the incubation, cells were lysed to stop APJ signaling, and cAMP was quantified using a commercially available assay kit that applies enzyme fragment complementation technology and bioluminescence, in a competitive ELISA format.
Compound efficacy (% resp) is reported as a percentage of the maximal apelin-13 response at 1 nM (control).

Where [1] appears, read: percentage of the maximal apelin-13 response at 1 nM (control).

Each structure is given as a SMILES string. Like-named read-outs stand apart in the source and are kept apart here. Some results are limits rather than exact numbers.

`COc1ccccc1-n1c(SCc2cc(=O)n3cc(C)ccc3n2)nnc1-c1ccco1` [Example 2, 2-[5-Furan-2-yl-4-(2-methoxy-phenyl)-4H-[1,2,4]triazol-3-ylsulfanylmethyl]-7-methyl-pyrido[1,2-a]pyrimidin-4-one]: the EC50 was 0.31 µM. Also, the Emax under setting [1] stood at 154%.

Consider `COc1ccccc1-n1c(SCc2cc(=O)n3cc(C)ccc3n2)nnc1-c1ccccc1` [Example 3, 2-[4-(2-Methoxy-phenyl)-5-phenyl-4H-[1,2,4]triazol-3-ylsulfanylmethyl]-7-methyl-pyrido[1,2-a]pyrimidin-4-one], for which the EC50 stood at 6.16 µM. The Emax under setting [1] worked out at 136%.

Regarding `COc1ccccc1-n1c(SCc2cc(=O)n3cc(C)ccc3n2)nnc1-c1ccncc1` [Example 4, 2-[4-(2-Methoxy-phenyl)-5-pyridin-4-yl-4H-[1,2,4]triazol-3-ylsulfanylmethyl]-7-methyl-pyrido[1,2-a]pyrimidin-4-one], the EC50 worked out at 3.09 µM. For the same molecule, the Emax under setting [1] was found to be 80%.

In the case of `COc1ccccc1-n1c(SCc2cc(=O)n3cc(C)ccc3n2)nnc1-c1ccc(C)cc1` [Example 5, 2-[4-(2-Methoxy-phenyl)-5-p-tolyl-4H-[1,2,4]triazol-3-ylsulfanylmethyl]-7-methyl-pyrido[1,2-a]pyrimidin-4-one], the EC50 is 1.51 µM. The Emax under setting [1] is 126%.

In the case of `COc1ccccc1-n1c(SCc2cc(=O)n3cc(C)ccc3n2)nnc1-c1ccc(N(C)C)cc1` [Example 6, 2-[5-(4-Dimethylamino-phenyl)-4-(2-methoxy-phenyl)-4H-[1,2,4]triazol-3-ylsulfanylmethyl]-7-methyl-pyrido[1,2-a]pyrimidin-4-one], the EC50 worked out at 13.6 µM. Moreover, the Emax under setting [1] came out at 176%.

Consider `COc1ccccc1-n1c(SCc2cc(=O)n3cc(C)ccc3n2)nnc1-c1ccc([N+](=O)[O-])cc1` [Example 7, 2-[4-(2-Methoxy-phenyl)-5-(4-nitro-phenyl)-4H-[1,2,4]triazol-3-ylsulfanylmethyl]-7-methyl-pyrido[1,2-a]pyrimidin-4-one], for which the EC50 was 6.63 µM. The Emax under setting [1] came out at 51%.

`COc1ccccc1-n1c(SCc2cc(=O)n3cc(C)ccc3n2)nnc1-c1ccc(Br)s1` [Example 8, 2-[5-(5-Bromo-thiophen-2-yl)-4-(2-methoxy-phenyl)-4H-[1,2,4]triazol-3-ylsulfanylmethyl]-7-methyl-pyrido[1,2-a]pyrimidin-4-one]: the EC50 came out at 0.551 µM. Further, the Emax under setting [1] came out at 137%.

As to `COc1ccccc1-n1c(SCc2cc(=O)n3cc(C)ccc3n2)nnc1-c1ccc(Cl)s1` [Example 9, 2-[5-(5-Chloro-thiophen-2-yl)-4-(2-methoxy-phenyl)-4H-[1,2,4]triazol-3-ylsulfanylmethyl]-7-methyl-pyrido[1,2-a]pyrimidin-4-one], the EC50 was found to be 0.455 µM. The Emax under setting [1] came to 136%.

Take `COc1ccccc1-n1c(SCc2cc(=O)n3cc(C)ccc3n2)nnc1-c1ccc(Br)o1` [Example 10, 2-[5-(5-Bromo-furan-2-yl)-4-(2-methoxy-phenyl)-4H-[1,2,4]triazol-3-ylsulfanylmethyl]-7-methyl-pyrido[1,2-a]pyrimidin-4-one]: the EC50 was 0.0182 µM. Moreover, under setting [1], the Emax was 150%.

`COc1ccccc1-n1c(SCc2cc(=O)n3cc(C)ccc3n2)nnc1-c1ccc(C)s1` [Example 11, 2-[4-(2-Methoxy-phenyl)-5-(5-methyl-thiophen-2-yl)-4H-[1,2,4]triazol-3-ylsulfanylmethyl]-7-methyl-pyrido[1,2-a]pyrimidin-4-one]: the EC50 amounted to 0.0704 µM. Under setting [1], the Emax amounted to 118%.

With `COc1ccccc1-n1c(SCc2cc(=O)n3cc(C)ccc3n2)nnc1-c1sccc1C` [Example 12, 2-[4-(2-Methoxy-phenyl)-5-(3-methyl-thiophen-2-yl)-4H-[1,2,4]triazol-3-ylsulfanylmethyl]-7-methyl-pyrido[1,2-a]pyrimidin-4-one], the EC50 came to 1.49 µM. Also, the Emax under setting [1] is 89%.

As to `COc1ccccc1-n1c(SCc2cc(=O)n3cc(C)ccc3n2)nnc1-c1ccc(C#N)cc1` [Example 13, 4-[4-(2-Methoxy-phenyl)-5-(7-methyl-4-oxo-4H-pyrido[1,2-a]pyrimidin-2-ylmethylsulfanyl)-4H-[1,2,4]triazol-3-yl]-benzonitrile], the EC50 came to 1.42 µM. The Emax under setting [1] was found to be 94%.

In the case of `COc1ccccc1-n1c(SCc2cc(=O)n3cc(C)ccc3n2)nnc1-c1nccs1` [Example 14, 2-[4-(2-Methoxy-phenyl)-5-thiazol-2-yl-4H-[1,2,4]triazol-3-ylsulfanylmethyl]-7-methyl-pyrido[1,2-a]pyrimidin-4-one], the EC50 was determined as 0.772 µM. The Emax under setting [1] stood at 105%.

For the molecule `COc1ccccc1-n1c(SCc2cc(=O)n3cc(C)ccc3n2)nnc1-c1ccc(C)o1` [Example 15, 2-[4-(2-Methoxy-phenyl)-5-(5-methyl-furan-2-yl)-4H-[1,2,4]triazol-3-ylsulfanylmethyl]-7-methyl-pyrido[1,2-a]pyrimidin-4-one], the EC50 worked out at 0.00444 µM. In addition, under setting [1], the Emax was 52%.

Turning to `COc1ccccc1-n1c(SCc2cc(=O)n3cc(C)ccc3n2)nnc1-c1ccoc1` [Example 16, 2-[5-Furan-3-yl-4-(2-methoxy-phenyl)-4H-[1,2,4]triazol-3-ylsulfanylmethyl]-7-methyl-pyrido[1,2-a]pyrimidin-4-one], the EC50 is 0.0968 µM. Also, the Emax under setting [1] is 84%.

With `COc1ccccc1-n1c(SCc2cc(=O)n3cc(C)ccc3n2)nnc1-c1ccsc1` [Example 17, 2-[4-(2-Methoxy-phenyl)-5-thiophen-3-yl-4H-[1,2,4]triazol-3-ylsulfanylmethyl]-7-methyl-pyrido[1,2-a]pyrimidin-4-one], the concentration for a half-maximal effect (EC50) amounted to 0.09 µM. In addition, the Emax under setting [1] amounted to 109%.

`COc1ccccc1-n1c(SCc2cc(=O)n3cc(C)ccc3n2)nnc1-c1cccn1C` [Example 18, 2-[4-(2-Methoxy-phenyl)-5-(1-methyl-1H-pyrrol-2-yl)-4H-[1,2,4]triazol-3-ylsulfanylmethyl]-7-methyl-pyrido[1,2-a]pyrimidin-4-one]: the EC50 was 1.7 µM. Under setting [1], the Emax turned out to be 58%.

For the molecule `COc1ccccc1-n1c(SCc2cc(=O)n3cc(C)ccc3n2)nnc1-c1nccn1C` [Example 19, 2-[4-(2-Methoxy-phenyl)-5-(1-methyl-1H-imidazol-2-yl)-4H-[1,2,4]triazol-3-ylsulfanylmethyl]-7-methyl-pyrido[1,2-a]pyrimidin-4-one], the EC50 is more than 10 µM. Moreover, the Emax under setting [1] was found to be 57%.

As to `COc1ccc(-n2c(SCc3cc(=O)n4cc(C)ccc4n3)nnc2-c2cccs2)cc1` [Example 20, 2-[4-(4-Methoxy-phenyl)-5-thiophen-2-yl-4H-[1,2,4]triazol-3-ylsulfanylmethyl]-7-methyl-pyrido[1,2-a]pyrimidin-4-one], the EC50 stood at 5 µM and the Emax turned out to be 10%.

Take `Cc1cccc(-n2c(SCc3cc(=O)n4cc(C)ccc4n3)nnc2-c2cccs2)c1` [Example 21, 7-Methyl-2-(5-thiophen-2-yl-4-m-tolyl-4H-[1,2,4]triazol-3-ylsulfanylmethyl)-pyrido[1,2-a]pyrimidin-4-one]: the concentration for a half-maximal effect (EC50) came to 2.37 µM. For the same molecule, under setting [1], the Emax is 113%.

Consider `COc1cccc(-n2c(SCc3cc(=O)n4cc(C)ccc4n3)nnc2-c2cccs2)c1` [Example 22, 2-[4-(3-Methoxy-phenyl)-5-thiophen-2-yl-4H-[1,2,4]triazol-3-ylsulfanylmethyl]-7-methyl-pyrido[1,2-a]pyrimidin-4-one], for which the EC50 was determined as 1.24 µM. In addition, the Emax under setting [1] was 134%.

For `Cc1ccc2nc(CSc3nnc(-c4cccs4)n3-c3ccccc3C)cc(=O)n2c1` [Example 23, 7-Methyl-2-(5-thiophen-2-yl-4-o-tolyl-4H-[1,2,4]triazol-3-ylsulfanylmethyl)-pyrido[1,2-a]pyrimidin-4-one], the EC50 was 0.179 µM. The Emax under setting [1] amounted to 109%.

As for `Cc1ccc2nc(CSc3nnc(-c4cccs4)n3-c3ccccc3F)cc(=O)n2c1` [Example 24, 2-[4-(2-Fluoro-phenyl)-5-thiophen-2-yl-4H-[1,2,4]triazol-3-ylsulfanylmethyl]-7-methyl-pyrido[1,2-a]pyrimidin-4-one], the EC50 was more than 10 µM.

In the case of `Cc1ccc2nc(CSc3nnc(-c4cccs4)n3-c3ccc(OC(F)(F)F)cc3)cc(=O)n2c1` [Example 25, 7-Methyl-2-[5-thiophen-2-yl-4-(4-trifluoromethoxy-phenyl)-4H-[1,2,4]triazol-3-ylsulfanylmethyl]-pyrido[1,2-a]pyrimidin-4-one], the half-maximal effective concentration (EC50) was more than 10 µM. The Emax under setting [1] is 52%.

The term EC50 denotes the concentration needed to bring the measured effect to its halfway point.
